Measurements from article PMC7778606, “Development of the phenylpyrazolo[3,4-d]pyrimidine-based, insulin-like growth factor receptor/Src/AXL-targeting small molecule kinase inhibitor” (Theranostics, 2021).
pIC50: −log10 of the molar value.

Tests used:
[1] = tested on: NSCLC cells; assay: Anchorage-dependent colony formation assay; format: cell-based, human; settings: subset of NSCLC cells
Method: Cells were seeded into 6-well plates at a density of 300 cells/well and treated with LL6. The drug-containing medium was changed once or twice a week. After incubation for 10-14 days, colonies were fixed with 100% methanol, stained with 0.002% crystal violet solution, and washed with deionized water several times. The colonies were imaged and manually counted.

[2] = tested on: Src; assay: Western blot, phosphorylation of Src in H1944 and A549 cells; format: cell-based, human; settings: 2.5 μM
Method: Before harvesting, the cells were stimulated with 10% FBS for 20 min. […] Equal amounts of protein (20 μg) were subjected to 8% SDS-PAGE and electrically transferred onto polyvinylidene difluoride membranes (Bio-Rad Laboratories, Hercules, CA, USA). Membranes were blocked with blocking buffer (3% BSA in Tris-buffered saline containing 0.1% Tween-20 [TBST]) for 1 h at room temperature. The membranes were incubated with primary antibodies diluted in 3% BSA in TBST (1:1,000) overnight at 4 °C, washed multiple times with TBST, and incubated with secondary antibodies diluted in 3% nonfat dry milk in TBST (1:5,000) for 1 h at room temperature. The membranes were washed multiple times with TBST and visualized using an enhanced chemiluminescence detection kit (Thermo Fisher Scientific). Densitometric analysis was performed using ImageJ software.

[3] = tested on: NSCLC cells; assay: Anchorage-independent (soft agar) colony formation assay; format: cell-based, human; settings: subset of NSCLC cells
Method: Cells (2-3 × 10^3 cells/well) were mixed with sterile 1% agar solution (final concentration of 0.4%) and poured onto 1% base agar in 24-well plates. After solidification of the top agar, LL6 was diluted in complete medium and added to the agar. Cells embedded in the top agar were incubated for 10-14 days at 37 °C with 5% CO2. The LL6-containing medium was changed twice a week. After incubation, the colonies were stained with MTT solution, imaged, and counted using ImageJ software (National Institutes of Health, Bethesda, […], USA).

[4] = tested on: LLC allografts; assay: Spontaneous lung metastasis of LLC allografts; format: in vivo, C57BL/6 mice; settings: 80 mg/kg orally, daily for 2 weeks
Method: We used the IVIS-Spectrum microCT and Living Image (ver. 4.2) software (PerkinElmer, Alameda, CA, USA) for monitoring metastatic tumor formation in the lungs. The instrument was operated according to the manufacturer's instruction. To facilitate the detection of photons emitted from metastatic lung tumors, we performed ex vivo imaging analysis. In brief, mice were injected at 60 mg/kg with the 15 mg/mL stock of luciferin prior to anesthesia. After 10-15 min, mice were euthanized, and lung tissues were excised and placed into a 60 mm dish. Tissues were immediately imaged after exposure for 1 min.

[5] = tested on: AXL; assay: Western blot, phosphorylation of AXL in H1944 and A549 cells; format: cell-based, human; settings: 2.5 μM
Method: (§1) Before harvesting, the cells were stimulated with 10% FBS for 20 min. Total cell lysates were prepared with modified radioimmunoprecipitation assay lysis buffer (50 mM Tris-HCl [pH 7.4], 150 mM NaCl, 1 mM EDTA, 0.25% sodium deoxycholate, 1% Triton X-100, 100 mM NaF, 5 mM Na3VO4, 1 mM PMSF, 1 μg/mL aprotinin, 1 μg/mL leupeptin, and 1 μg/mL pepstatin). Equal amounts of protein (20 μg) were subjected to 8% SDS-PAGE and electrically transferred onto polyvinylidene difluoride membranes (Bio-Rad Laboratories, Hercules, CA, USA). Membranes were blocked with blocking buffer (3% BSA in Tris-buffered saline containing 0.1% Tween-20 [TBST]) for 1 h at room temperature. The membranes were incubated with primary antibodies diluted in 3% BSA in TBST (1:1,000) overnight at 4 °C, washed multiple times with TBST, and incubated with secondary antibodies diluted in 3% nonfat dry milk in TBST (1:5,000) for 1 h at room temperature. The membranes were washed multiple times with TBST and visualized using an enhanced chemiluminescence detection kit (Thermo Fisher Scientific). Densitometric analysis was performed using ImageJ software.

[6] = tested on: H1944 and A549 xenograft tumors; assay: NSCLC xenograft tumor model; format: in vivo, NOD/SCID mice; settings: 80 mg/kg
Method: All animal experiments were performed according to protocols approved by the Seoul National University Institutional Animal Care and Use Committee. Mice were fed standard mouse chow and water ad libitum and housed in temperature- and humidity-controlled facilities with a 12-h light/12-h dark cycle. For xenograft experiments, H1944 and A549 cells (1×10^6 cells/spot, diluted in equal amounts of PBS and Matrigel) were subcutaneously injected into the right flank of 6-week-old non-obese diabetic-severe combined immunodeficiency (NOD/SCID) mice. After the tumor volume reached 50-150 mm^3, the mice were randomly grouped and treated with vehicle [10% DMSO in 60% polyethylene glycol (PEG) 400 solution] or LL6 (80 mg/kg) 6 days per week for 2 weeks. Tumor growth was determined by measuring the short and long diameters of the tumor with a caliper, and body weight was measured once or twice per week to monitor toxicity. Additionally, to evaluate the effect of LL6 on mutant Kras-driven lung tumorigenesis, 2-month-old Kras^G12D/+ transgenic mice were randomized and treated with vehicle or LL6 (80 mg/kg) for 8 weeks. The mice were euthanized, and tumor formation was evaluated and compared with that of the vehicle-treated control group. Microscopic evaluations of the H&E-stained lung tissue were also performed to measure mean tumor number (N) and volume (V) in a blinded fashion. The number and size of tumors were calculated in five sections uniformly distributed throughout each lung. In both animal experiments, the tumor volume and burden of each sample were calculated using the following formulas: Tumor volume (mm^3) = (short diameter)^2 × (long diameter) × 0.5; Tumor burden (mm^3) = number of tumors × the average of tumor volume.

[7] = tested on: H1993 cells; assay: MTT assay, viability of H1993 cells; format: cell-based; settings: Homo sapiens, NCI-H1993, 72 h, three days, read-out: IC50 against the viability
Method: (§2) Cells were seeded into 96-well plates at a density of 1-2 × 10^3 cells/well and incubated for 24 h. Cells were treated with vehicle or various concentrations of test compounds for two (PC9 and PC9/ER cells) or three (other cells) days. Cells were further incubated with MTT solution (final concentration of 500 μg/mL) for 4 h at 37 °C. The formazan products were dissolved in dimethyl sulfoxide (DMSO), and the absorbance was measured at 570 nm. The data are presented as a percentage of the control group.

[8] = tested on: H1944 and A549 NSCLC cells; assay: Apoptosis (PARP cleavage, chromatin condensation, sub-G1 phase); format: cell-based, human; settings: LL6 2.5 µM; LDB = linsitinib 2 µM, dasatinib 50 nM, bemcentinib 100 nM
Method: as §1

[9] = tested on: Wi38 cells; assay: MTT assay, viability of Wi38 human lung fibroblasts; format: cell-based; settings: WI-38, 72 h; Wi38 human lung fibroblasts, MTT assay, three days; read-out: IC50 against the viability
Method: as §2

[10] = as above; format: cell-based; settings: human, Wi38 lung fibroblasts; Wi38, 10 μM; read-out: percentage of cell viability
Method: as §2

[11] = Glucose tolerance test; format: in vivo; settings: LL6-administered mice vs vehicle-treated mice
Method: Glucose tolerance tests were performed as described in the previously published literature.

[12] = tested on: H226B cells; assay: MTT assay, viability of H226B cells; format: cell-based; settings: Homo sapiens, 72 h, three days, read-out: IC50 against the viability
Method: as §2

SMILES: Nc1ncnc2c1c(-c1ccc(Cl)cc1)nn2CCn1cc(COc2ccc(Nc3nccc(Nc4cnc5ccccc5c4)n3)cc2)nn1 [LL6]
- colony formation, anchorage-dependent [1]: significantly suppressed
- activation (phosphorylation) of Src [2]: efficiently suppressed
- colony formation, anchorage-independent [3]: significantly suppressed
- metastatic tumor nodules in the lungs [4]: significantly decreased
- activation (phosphorylation) of AXL [5]: efficiently suppressed
- tumor growth and weight ([6]; H1944 and A549 xenografts, 6 days per week for 2 weeks): significantly reduced
- expression of phosphorylated IGF-1R and Src in tumors ([6]; Western blot of xenograft tumors): substantially suppressed
- body weight ([6]; xenograft-bearing mice): minimal changes
- pIC50 [7]: 5.11
- proapoptotic effects (PARP cleavage, chromatin condensation, sub-G1 phase) [8]: notably induced apoptosis
- pIC50 [9]: < 5.00
- viability at 3 days, 10 µM [10]: > 60%
- glucose clearance [11]: minimal difference
- pIC50 [12]: 5.86
